The text below walks through data of BindingDB's records for doi:10.1021/jm00050a008 (University of North Carolina, 1995).

This test can be described thus: The compound was tested for affinity towards sigma-3 receptor.
Compound `CNC1Cc2ccccc2C(c2ccccc2)C1` (stereo not given) had an IC50 of 79 nM.
Consider `CCCN(C)C1Cc2ccccc2C(c2ccccc2)C1` (stereo not given), for which inhibition was half-maximal at 4.5 nM (IC50).
As for `CCN(CC)C1Cc2ccccc2C(c2ccccc2)C1` (trans isomer), the figure is 2.2 nM.
The compound `CCCNC1Cc2ccccc2C(c2ccccc2)C1` (stereo not given) yielded an IC50 of 59 nM.
The figure for `CCCN(CCC)C1Cc2ccccc2C(c2ccccc2)C1` (stereo not given) is 13 nM.

The IC50 is the midpoint of a concentration-inhibition curve. Read a low IC50 as higher potency.
